The source of these data is PubChem BioAssay (NCI).

Molecules are shown by their SMILES.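 The compound was tested at five concentrations on cells cultured in 96-well plates, with a 48-hour exposure period. GI50 is the concentration that inhibits growth by half. TGI marks complete inhibition of growth.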

Among the test systems are CCRF-CEM leukemia; HCC-2998 colon; TK-10 renal; RXF 393 renal; IGROV1 ovarian; NCI-H226 lung; M14 melanoma; UACC-257 melanoma; HCT-15 colon; SK-MEL-2 melanoma.
What all share (test): growth of human tumour cells (NCI), 48 h

Regarding `O=C1CCCCC=C1C[N+](=O)[O-]`, the GI50 is 5.7 µM in the test on CCRF-CEM leukemia; 20.5 µM with HCC-2998 colon; 24.7 µM with TK-10 renal; 14.7 µM in the test with RXF 393 renal; 33 µM with IGROV1 ovarian; 26 µM in the test on NCI-H226 lung. The GI50 was 19.3 µM in the test with M14 melanoma, 28.6 µM in the test on UACC-257 melanoma, 13.5 µM in the test with HCT-15 colon and 19.5 µM in the test on SK-MEL-2 melanoma. In addition, the TGI in the test with CCRF-CEM leukemia is 23.3 µM; with HCC-2998 colon, 43.6 µM; in the test on TK-10 renal, 54.8 µM; in the test on RXF 393 renal it was 35.2 µM; with IGROV1 ovarian it was greater than 100 µM; with NCI-H226 lung it was 73.3 µM. Moreover, the TGI is 45 µM in the test with M14 melanoma, greater than 100 µM with UACC-257 melanoma, 35.8 µM with HCT-15 colon and 44.4 µM in the test with SK-MEL-2 melanoma.

Regarding `CSc1nc2c(nc(N)n2C2OC(COC(C)=O)C(OC(C)=O)C(OC(C)=O)C2OC(C)=O)c(=O)n1C` (centres undefined), the TGI in the test on CCRF-CEM leukemia, in the test with HCC-2998 colon, in the test on TK-10 renal, in the test on RXF 393 renal, with IGROV1 ovarian and in the test on NCI-H226 lung was greater than 100 µM in each case. Also, the TGI in the test with M14 melanoma, with UACC-257 melanoma, in the test on HCT-15 colon and in the test on SK-MEL-2 melanoma was greater than 100 µM each time.

As for `Nc1nc2c(nnn2C2OC(CO)C(O)C2O)c(=O)[nH]1` (centres undefined), the GI50 is 0.676 µM with CCRF-CEM leukemia; 0.854 µM in the test on HCC-2998 colon; 2.05 µM in the test with TK-10 renal; 1.4 µM in the test on RXF 393 renal; 2.76 µM with IGROV1 ovarian; 6.31 µM in the test on NCI-H226 lung. Besides, the GI50 with M14 melanoma was 2.07 µM; in the test on UACC-257 melanoma, 7.29 µM; in the test on HCT-15 colon, 0.714 µM; with SK-MEL-2 melanoma it was 0.777 µM. For the same molecule, the TGI in the test on CCRF-CEM leukemia was greater than 100 µM; in the test on HCC-2998 colon, greater than 27.3 µM; in the test on TK-10 renal, 32.6 µM; with RXF 393 renal, 13.6 µM; in the test with IGROV1 ovarian it was greater than 100 µM; with NCI-H226 lung it was greater than 100 µM. Further, the TGI is greater than 100 µM with M14 melanoma, greater than 100 µM with UACC-257 melanoma, greater than 100 µM with HCT-15 colon and 23.8 µM in the test with SK-MEL-2 melanoma.

For the molecule `CO[C@]12C=C/C(=C(/C(=O)OCc3cccnc3)C(=O)CCCCCCCC[C@@]3(OC)C=C/C(=C(/C(=O)OCc4cccnc4)C(=O)CCCCCCCC1)O3)O2`, the GI50 in the test on CCRF-CEM leukemia was 0.741 µM; in the test with HCC-2998 colon, 0.979 µM; in the test on TK-10 renal, 2.93 µM; in the test on RXF 393 renal it was 0.915 µM; in the test with IGROV1 ovarian it was 1.75 µM; with NCI-H226 lung, 1.02 µM. The GI50 in the test on M14 melanoma is 1.2 µM; in the test on UACC-257 melanoma it was 2.01 µM; in the test with HCT-15 colon, 1.04 µM; in the test on SK-MEL-2 melanoma, 1.34 µM. Besides, the TGI in the test with CCRF-CEM leukemia is 7.8 µM; in the test with HCC-2998 colon, 1.84 µM; with TK-10 renal, 18.9 µM; with RXF 393 renal, 1.7 µM; in the test on IGROV1 ovarian it was 14.7 µM; in the test on NCI-H226 lung, 1.94 µM. Besides, the TGI with M14 melanoma came out at 3.79 µM; in the test on UACC-257 melanoma, 20.1 µM; in the test with HCT-15 colon, 2.82 µM; with SK-MEL-2 melanoma, 4 µM.

For `C/C=C(/CCC1NCCC2c3ccccc3NC12)[Si](C)(C)C` (centres undefined), the TGI in the test with CCRF-CEM leukemia stood at 57 µM; with HCC-2998 colon it was 3.61 µM; in the test with TK-10 renal, 28.8 µM; in the test on RXF 393 renal, 19.2 µM; with IGROV1 ovarian, 25.6 µM; in the test on NCI-H226 lung it was 27.1 µM. For the same molecule, the TGI was 11.8 µM in the test with M14 melanoma, 14.2 µM in the test with UACC-257 melanoma, 24.9 µM with HCT-15 colon and 26.7 µM with SK-MEL-2 melanoma.

`Cc1ccc(/C=C/C(=N/N=C(N)N)c2ccccc2)cc1`: the GI50 in the test with CCRF-CEM leukemia is 2.34 µM; with HCC-2998 colon, 3.11 µM; in the test on TK-10 renal, 3.89 µM; in the test with RXF 393 renal, 1.62 µM; with IGROV1 ovarian, 6.36 µM; in the test with NCI-H226 lung, 3.09 µM. Moreover, the GI50 with M14 melanoma was 1.67 µM; in the test on UACC-257 melanoma, 2.96 µM; in the test with HCT-15 colon, 2.74 µM; in the test with SK-MEL-2 melanoma, 2.75 µM. Besides, the TGI in the test with CCRF-CEM leukemia turned out to be 18.9 µM; in the test on HCC-2998 colon, 11.8 µM; in the test on TK-10 renal, 12 µM; with RXF 393 renal, 4.03 µM; with IGROV1 ovarian it was 23.1 µM; with NCI-H226 lung, 12.6 µM. Also, the TGI stood at 3.95 µM with M14 melanoma, 12.9 µM in the test on UACC-257 melanoma, 13.8 µM in the test with HCT-15 colon and 8.04 µM with SK-MEL-2 melanoma.

With `O=C(/C=C/c1ccccc1Cl)c1cccc2ccccc12`, the TGI is 45.2 µM in the test on CCRF-CEM leukemia; 27.9 µM with HCC-2998 colon; 29.2 µM in the test on TK-10 renal; 28.6 µM in the test with RXF 393 renal; 29.6 µM in the test on IGROV1 ovarian; greater than 100 µM with NCI-H226 lung. In addition, the TGI came out at 30.5 µM in the test on M14 melanoma, 32 µM in the test with UACC-257 melanoma, 17.2 µM in the test on HCT-15 colon and 35.5 µM with SK-MEL-2 melanoma.

Consider `O=C(c1ccco1)c1c(C(F)(F)F)nc2ccc(C(F)(F)F)cc2[n+]1[O-]`, for which the TGI with CCRF-CEM leukemia is greater than 49.4 µM; in the test on HCC-2998 colon, greater than 100 µM; in the test with TK-10 renal it was 50 µM; with RXF 393 renal it was 62.2 µM; with IGROV1 ovarian, greater than 92.7 µM; in the test on NCI-H226 lung it was greater than 100 µM. For the same molecule, the TGI with M14 melanoma was greater than 100 µM; with UACC-257 melanoma, greater than 85.9 µM; with HCT-15 colon, greater than 100 µM; in the test with SK-MEL-2 melanoma it was greater than 100 µM. Also, the GI50 with HCC-2998 colon was 57.6 µM; in the test with TK-10 renal it was 23.9 µM; with RXF 393 renal, 26.5 µM; in the test on IGROV1 ovarian, 35.6 µM; with NCI-H226 lung, 32.1 µM; in the test on M14 melanoma it was 35.8 µM. The GI50 in the test on UACC-257 melanoma was greater than 52.6 µM; in the test with HCT-15 colon, greater than 86.9 µM; with SK-MEL-2 melanoma, greater than 64.6 µM.

For `O=C1C(=O)c2ccccc2C(O)=C1CCCc1ccc(C2CCCC2)cc1`, the GI50 was 4.62 µM with CCRF-CEM leukemia; 2.99 µM in the test with HCC-2998 colon; 6.99 µM with TK-10 renal; 1.41 µM in the test on RXF 393 renal; 3.72 µM in the test on IGROV1 ovarian; 3.77 µM with NCI-H226 lung. For the same molecule, the GI50 is 8.86 µM with M14 melanoma, 3.91 µM with UACC-257 melanoma, 4.25 µM in the test with HCT-15 colon and 7.2 µM with SK-MEL-2 melanoma. Besides, the TGI is 30.3 µM in the test on CCRF-CEM leukemia; 8.34 µM with HCC-2998 colon; 34.1 µM in the test with TK-10 renal; 11.6 µM in the test with RXF 393 renal; 18.4 µM with IGROV1 ovarian; 20.5 µM in the test on NCI-H226 lung. In addition, the TGI was 23.7 µM in the test on M14 melanoma, 28.2 µM with UACC-257 melanoma, 16.9 µM with HCT-15 colon and 32.7 µM with SK-MEL-2 melanoma.
